Where a SMILES comes first, the peptide text is derived from it. Bridges are numbered along the chain shown (N, C = ends).
Assays:
[1] = Parallel biophysical and cell viability experiments on h-IAPP variants; assay type: cell-based
Procedure: Parallel biophysical and cell viability experiments were conducted using a range of conditions that alter the length of the lag phase. h-IAPP amyloid kinetics are concentration-dependent. Decreasing the peptide concentration leads to an increase in the length of the lag phase, while an increase in human-IAPP concentration leads to a shortening of the lag phase. The length of the lag phase can also be controlled by altering the temperature. Lower temperatures lead to a longer lag phase; the lag phase is 2-fold longer at 15° C. […] A set of rationally designed Ser-20 mutations were used. Ser-20 is located at a critical position in the h-IAPP sequence and modulates its aggregation kinetics. […] Toxicity and kinetics experiments were performed on the Ser-20 mutants. […] An human-IAPP triple mutant, 3×L-IAPP, in which Leu replaced the three aromatic residues (Phe-15, Phe=23 and Tyr-37) was tested. This mutant forms amyloid 9-fold more slowly than wild type human IAPP (Marek at al. 2007). […] The duration of toxicity for all the mutants and for all the conditions with human IAPP wild type correlated with the length of the respective lag phases.

[2] = Marek at al. 2007; cited from earlier work

CC[C@H](C)[C@H](NC(=O)[C@H](C)NC(=O)CNC(=O)[C@H](CC(C)C)NC(=O)[C@H](CC(N)=O)NC(=O)[C@H](CC(N)=O)NC(=O)[C@H](CO)NC(=O)[C@H](CO)NC(=O)[C@H](Cc1c[nH]cn1)NC(=O)[C@@H](NC(=O)[C@H](CC(C)C)NC(=O)[C@H](CC(C)C)NC(=O)[C@H](CC(N)=O)NC(=O)[C@H](C)NC(=O)[C@H](CC(C)C)NC(=O)[C@H](CCCNC(=N)N)NC(=O)[C@H](CCC(N)=O)NC(=O)[C@@H](NC(=O)[C@H](C)NC(=O)[C@@H]1CSSC[C@H](NC(=O)[C@@H](N)CCCCN)C(=O)N[C@@H](CC(N)=O)C(=O)N[C@@H]([C@@H](C)O)C(=O)N[C@@H](C)C(=O)N[C@@H]([C@@H](C)O)C(=O)N1)[C@@H](C)O)C(C)C)C(=O)N[C@@H](CC(C)C)C(=O)N[C@@H](CO)C(=O)N[C@@H](CO)C(=O)N[C@H](C(=O)N[C@@H](CC(N)=O)C(=O)N[C@H](C(=O)NCC(=O)N[C@@H](CO)C(=O)N[C@@H](CC(N)=O)C(=O)N[C@H](C(=O)N[C@@H](CC(C)C)C(N)=O)[C@@H](C)O)C(C)C)[C@@H](C)O [3×L-IAPP] (H-KCNTATCATQRLANLLVHSSNNLGAILSSTNVGSNTL-NH2; disulfide 2-7)
onset and duration of toxicity relative to wild type human IAPP [1]: longer duration of toxicity
amyloid formation slower than wild type human IAPP [2]: 9 fold
